From ChEMBL document CHEMBL1770081, “Inhibition and structural reliability of prenylated flavones from the stem bark of Morus lhou on β-secretase (BACE-1)” (Bioorg Med Chem Lett, 2011)

Legend:
[1] = biological target: T1, Beta-secretase 1 (Homo sapiens, UniProt P56817); assay: Inhibition of human recombinant BACE-1 expressed in HEK293 cells assessed as inhibition of amyloid precursor protein cleavage into amyloid beta after 60 mins using Rh-EVNLDAEFK-Quencher as a substrate by FRET assay; format: cell-based
[2] = biological target: T1, Beta-secretase 1; assay: Noncompetitive inhibition of human recombinant BACE-1 by Dixon plot analysis

T1 sequence (P56817 whole entry): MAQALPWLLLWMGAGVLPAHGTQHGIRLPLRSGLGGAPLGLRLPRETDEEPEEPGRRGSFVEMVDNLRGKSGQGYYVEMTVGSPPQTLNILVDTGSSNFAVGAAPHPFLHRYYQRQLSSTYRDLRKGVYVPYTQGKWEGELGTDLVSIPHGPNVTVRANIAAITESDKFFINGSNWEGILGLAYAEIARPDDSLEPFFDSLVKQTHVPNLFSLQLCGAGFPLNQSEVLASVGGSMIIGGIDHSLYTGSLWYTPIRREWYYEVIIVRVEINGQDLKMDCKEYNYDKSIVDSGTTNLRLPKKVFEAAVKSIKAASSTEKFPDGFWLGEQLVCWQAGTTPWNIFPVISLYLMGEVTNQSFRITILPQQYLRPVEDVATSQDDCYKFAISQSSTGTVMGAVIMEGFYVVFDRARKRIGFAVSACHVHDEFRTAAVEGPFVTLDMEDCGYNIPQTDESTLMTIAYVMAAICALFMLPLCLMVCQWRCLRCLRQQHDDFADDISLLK

Compound	IC50 [1]	Ki [2]
CC(C)=CC1Oc2cc(O)ccc2-c2oc3c4c(cc(O)c3c(=O)c21)OC(C)(C)C=C4 (configuration not stated) [CYCLOMORUSIN]	101 µM	
CC(C)=CCc1c(-c2ccc(O)c3c2OC(C)(C)C=C3)oc2cc(O)cc(O)c2c1=O [KUWANON A]	5.3 µM	10.6 µM
CC(C)=CCc1c(-c2ccc(O)cc2O)oc2c(CC=C(C)C)c(O)cc(O)c2c1=O [KUWANON C]	3.4 µM	2.2 µM
C/C(=C/Cc1c(-c2ccc(O)cc2O)oc2c3c(cc(O)c2c1=O)OC(C)(CO)C=C3)CO (configuration not stated) [MORMIN]	103 µM	
CC(C)(O)CCc1c(-c2ccc(O)cc2O)oc2c3c(cc(O)c2c1=O)OC(C)(C)C=C3 [MORUSINOL]	136 µM	
CC(C)=CCc1c(-c2ccc(O)cc2O)oc2c3c(cc(O)c2c1=O)OC(C)(C)C=C3 [MORUSIN]	59.4 µM	64.1 µM
CC1(C)C=Cc2c(cc(O)c3c(=O)c4c(oc23)-c2ccc(O)cc2OC(C(C)(C)O)C4)O1 (configuration not stated) [NEOCYCLOMORUSIN]	146 µM	
O=c1cc(-c2ccc(O)cc2O)oc2cc(O)cc(O)c12 [NORARTOCARPETIN]	60.6 µM	82.6 µM
